Reference: ChEMBL document CHEMBL1201862, “PubChem BioAssay data set” (2004)
The source made the active and inactive calls.

Key:
Estrogen receptor beta [1] = molecular target: T1, Estrogen receptor beta (Homo sapiens, UniProt Q92731);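 also: recombinant ER-beta bound to coactivator SRC1 peptide in presence of estradiol agonist; inhibitors block coactivator peptide binding and lower the FRET signal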
Estrogen receptor = molecular target: T2, Estrogen receptor (Homo sapiens, UniProt P03372);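 also: potency for inhibiting coactivator peptide recruitment to the receptor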
T2 sequence (P03372 whole entry): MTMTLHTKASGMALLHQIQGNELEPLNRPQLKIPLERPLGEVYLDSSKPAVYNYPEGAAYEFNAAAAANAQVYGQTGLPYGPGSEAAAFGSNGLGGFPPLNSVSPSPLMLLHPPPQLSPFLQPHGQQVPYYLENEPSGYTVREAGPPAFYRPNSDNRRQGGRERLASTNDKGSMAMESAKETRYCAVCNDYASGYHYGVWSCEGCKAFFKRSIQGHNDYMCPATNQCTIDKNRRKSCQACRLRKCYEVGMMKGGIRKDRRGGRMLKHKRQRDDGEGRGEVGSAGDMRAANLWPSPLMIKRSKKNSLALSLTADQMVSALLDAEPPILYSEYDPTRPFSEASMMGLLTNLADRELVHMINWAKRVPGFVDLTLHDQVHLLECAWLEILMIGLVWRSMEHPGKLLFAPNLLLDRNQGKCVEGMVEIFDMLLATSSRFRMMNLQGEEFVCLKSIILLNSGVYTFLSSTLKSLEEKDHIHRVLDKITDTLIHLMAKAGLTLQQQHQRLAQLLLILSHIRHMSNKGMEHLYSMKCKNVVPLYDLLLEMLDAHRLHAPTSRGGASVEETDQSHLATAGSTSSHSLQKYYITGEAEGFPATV

Estrogen receptor beta [2] = molecular target: T1, Estrogen receptor beta; test: ERβ–SRC-3 coactivator interaction inhibitors, confirmation, orthogonal assay, biochemical, ELISA, streptavidin-HRP readout (AID 1060)
[3] = molecular target: Low molecular weight phosphotyrosine protein phosphatase (Homo sapiens, UniProt P24666); type: functional; conditions: read-out: IC50_Mean;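 also: Dose-response confirmation assay measuring inhibition of LMPTP enzyme activity by fluorescence intensity read-out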
[4] = molecular target: T3, Histone-lysine N-methyltransferase NSD2 (Homo sapiens, UniProt O96028); type: biochemical
T3 sequence (O96028 whole entry): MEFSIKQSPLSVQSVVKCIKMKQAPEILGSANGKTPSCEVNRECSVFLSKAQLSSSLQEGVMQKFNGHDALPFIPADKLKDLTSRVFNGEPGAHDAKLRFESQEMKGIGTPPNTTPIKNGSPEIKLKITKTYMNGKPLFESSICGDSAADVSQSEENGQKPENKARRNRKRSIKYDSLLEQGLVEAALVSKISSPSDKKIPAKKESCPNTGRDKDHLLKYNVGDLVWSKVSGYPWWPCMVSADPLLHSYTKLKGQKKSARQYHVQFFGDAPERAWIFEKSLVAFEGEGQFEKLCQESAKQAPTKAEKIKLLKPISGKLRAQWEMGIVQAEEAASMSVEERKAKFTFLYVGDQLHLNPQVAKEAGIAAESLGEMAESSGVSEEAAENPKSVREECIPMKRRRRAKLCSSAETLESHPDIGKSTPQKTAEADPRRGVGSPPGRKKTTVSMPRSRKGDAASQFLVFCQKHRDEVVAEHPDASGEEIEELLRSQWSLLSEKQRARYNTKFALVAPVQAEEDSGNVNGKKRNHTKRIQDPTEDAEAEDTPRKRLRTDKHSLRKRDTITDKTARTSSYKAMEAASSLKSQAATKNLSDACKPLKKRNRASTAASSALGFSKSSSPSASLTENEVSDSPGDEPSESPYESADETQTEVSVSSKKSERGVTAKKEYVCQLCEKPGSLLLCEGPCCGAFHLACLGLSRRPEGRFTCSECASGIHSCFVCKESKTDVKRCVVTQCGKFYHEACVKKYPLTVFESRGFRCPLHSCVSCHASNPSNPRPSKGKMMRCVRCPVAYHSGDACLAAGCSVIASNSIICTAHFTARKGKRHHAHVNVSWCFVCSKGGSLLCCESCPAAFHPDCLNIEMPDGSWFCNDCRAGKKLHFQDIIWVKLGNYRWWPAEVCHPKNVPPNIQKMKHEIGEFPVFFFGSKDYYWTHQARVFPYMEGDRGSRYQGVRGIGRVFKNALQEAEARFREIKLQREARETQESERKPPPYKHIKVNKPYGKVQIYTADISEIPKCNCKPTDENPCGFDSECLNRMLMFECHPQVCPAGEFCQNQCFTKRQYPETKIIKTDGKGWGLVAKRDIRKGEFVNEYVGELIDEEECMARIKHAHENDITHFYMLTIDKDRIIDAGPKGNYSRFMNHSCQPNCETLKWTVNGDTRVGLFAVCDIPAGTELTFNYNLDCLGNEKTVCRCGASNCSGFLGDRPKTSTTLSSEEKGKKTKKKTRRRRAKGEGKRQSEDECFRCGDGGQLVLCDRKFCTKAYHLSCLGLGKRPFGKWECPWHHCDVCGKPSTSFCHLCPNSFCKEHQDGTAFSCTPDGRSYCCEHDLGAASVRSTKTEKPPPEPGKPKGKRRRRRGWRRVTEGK

cells [5] = type: functional, cell-based; conditions: HEK-CNG
Galanin receptor type 3 = Galanin receptor type 3 (Homo sapiens, UniProt O60755); test: Fluorescence-based cell-based primary high throughput dose response assay to identify antagonists of the Galanin Receptor 3 (GalR3).; type: functional
Coagulation factor XII = molecular target: T4, Coagulation factor XII (Homo sapiens, UniProt P00748); type: functional;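 also: activated factor XIIa alpha cleaving a fluorogenic AMC peptide substrate; inhibitor potency from loss of enzyme activity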
T4 sequence (P00748 whole entry): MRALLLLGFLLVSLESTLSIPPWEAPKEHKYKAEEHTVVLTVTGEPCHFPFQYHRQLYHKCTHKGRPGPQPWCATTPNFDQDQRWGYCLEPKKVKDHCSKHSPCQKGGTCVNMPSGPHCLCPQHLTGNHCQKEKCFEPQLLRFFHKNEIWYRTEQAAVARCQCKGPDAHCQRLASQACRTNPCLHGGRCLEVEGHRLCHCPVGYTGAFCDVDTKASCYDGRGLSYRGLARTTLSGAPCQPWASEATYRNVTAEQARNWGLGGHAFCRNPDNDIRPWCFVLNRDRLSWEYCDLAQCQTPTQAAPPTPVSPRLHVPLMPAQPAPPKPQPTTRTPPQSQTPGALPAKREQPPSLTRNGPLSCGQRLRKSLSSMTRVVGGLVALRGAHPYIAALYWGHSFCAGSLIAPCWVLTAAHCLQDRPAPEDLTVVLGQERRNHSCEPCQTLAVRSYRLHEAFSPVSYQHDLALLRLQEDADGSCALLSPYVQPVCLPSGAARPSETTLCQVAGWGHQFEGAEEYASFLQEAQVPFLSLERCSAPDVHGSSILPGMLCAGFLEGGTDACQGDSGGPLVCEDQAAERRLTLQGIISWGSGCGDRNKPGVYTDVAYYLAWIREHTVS

Mu-type opioid receptor = Mu-type opioid receptor (Homo sapiens, UniProt P35372); type: functional, cell-based;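 also: U2OS cells with beta-arrestin recruitment to OPRM1 by beta-gal complementation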
[6] = molecular target: 5-hydroxytryptamine receptor 2A (Mus musculus, UniProt P35363); type: functional, cell-based;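 also: CHO-K1 cells with tagged receptor and beta-arrestin; agonist potency measured as compound-induced activation of the receptor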
HEK293 [7] = test: NOD1 signaling inhibitors, primary screen, cell-based, luminescence, uHTS (AID 1578); type: functional; conditions: Homo sapiens
[8] = molecular target: T5, Beta-2 adrenergic receptor (Homo sapiens, UniProt P07550); test: beta2AR agonists driving receptor internalization, dose response, cell-based, FAP fluorogen, flow cytometry, cherry pick 1 (AID 588763); type: functional
[9] = molecular target: T5, Beta-2 adrenergic receptor; test: Dose response for HTS for Beta-2AR agonists via FAP method from Powderset3.; type: functional
HEK293 [10] = test: cells; type: functional, cell-based; conditions: Homo sapiens
HEK293 [11] = test: cells; type: functional, cell-based; conditions: Homo sapiens; remark: listed apart in the source
HEK293 [12] = test: NOD2 signaling inhibitors in MDP-stimulated cells, cell-based, uHTS, luminescence (AID 2001); type: functional; conditions: Homo sapiens
[13] = C. albicans growth with fluconazole, confirmation, fluorescence, retest (AID 2467); type: functional, cell-based
[14] = Counterscreen for activators of the function of SWI/SNF related, matrix associated, actin dependent regulator of chromatin, subfamily a, member 2 (SMARCA2, BRM): Luminescence-based cell-based high throughput dose response assay to identify non-selective compounds using the VP16 reporter assay.; type: functional
Vero [15] = test: cells; type: functional; conditions: Chlorocebus sabaeus
[16] = molecular target: SWI/SNF-related matrix-associated actin-dependent regulator of chromatin subfamily A member 2 (Homo sapiens, UniProt P51531); test: Luminescence-based cell-based high throughput dose response assay to identify activators of the function of SWI/SNF related, matrix associated, actin dependent regulator of chromatin, subfamily a, member 2 (SMARCA2, BRM).; type: functional
[17] = NIH-3T3 fibroblast cytotoxicity, dose response, cytotoxicity control, cell-based, fluorescence, Alamar Blue, secondary assay (AID 2327); type: functional;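 also: NIH-3T3 mouse fibroblasts cultured with fluconazole at 8 µg/mL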
Vero [18] = test: cells; type: functional, cell-based; conditions: Chlorocebus sabaeus
cells [19] = type: functional, cell-based
[20] = molecular target: Nuclear receptor subfamily 0 group B member 1 (Homo sapiens, UniProt P51843); type: functional, cell-based;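 also: HEK293T cells transfected with SF-1 and DAX-1 plus StAR promoter luciferase reporter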
[21] = molecular target: T6, Sentrin-specific protease 1 (Homo sapiens, UniProt Q9P0U3); test: Dose response confirmation of small molecule inhibitors of the catalytic domain of the SUMO protease, SENP1 in a FRET assay.; type: functional; conditions: read-out: IC50_Mean
[22] = molecular target: T6, Sentrin-specific protease 1; test: potency of human SENP1 inhibitors, dose response, biochemical, kinetic FRET (AID 651697); type: functional; conditions: read-out: IC50_Mean
[23] = molecular target: T7, Methionyl-tRNA synthetase, putative (Trypanosoma brucei brucei, UniProt Q38C91); type: functional, Trypanosoma brucei brucei strain 927/4 GUTat10.1
[24] = Counterscreen for inhibitors of Trypanosoma brucei methionyl tRNA synthetase (MetRS): Luminescence-based cell-based high throughput dose response assay to identify compounds that are cytotoxic to Jurkat human T lymphocyte cells.; type: functional
[25] = molecular target: T7, Methionyl-tRNA synthetase, putative; type: functional, Trypanosoma brucei brucei strain 927/4 GUTat10.1; remark: listed apart in the source
Cryptococcus neoformans = test: PubChem AID 686997; type: functional, organism-based
[26] = CEM21 lymphoblast cell cytotoxicity, dose response, cytotoxicity control for viral fusion inhibitor project, CellTiter-Glo luminescence, cherry-picked (AID 652042); type: functional, cell-based;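 also: potency for signal decrease meaning cytotoxicity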
[27] = inhibitors of HIV Env-driven cell fusion, dose response, cherry-pick (AID 652057); type: functional, cell-based
[28] = inhibitors of clade B AD8 Env fusion, dose response, cell-based, cherry-pick (AID 652062); type: functional;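 also: luciferase signal from cell-cell fusion driven by HIV-1 clade B AD8 Env; potency is for inhibitors of fusion seen as a drop in luminescence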
Vero [29] = test: Vero cell toxicity, dose response, cytotoxicity control, plate reader, cherry-pick samples (AID 687020); type: functional, cell-based; conditions: Chlorocebus sabaeus
[30] = HEK293 cell viability, dose response, counter-screen for EBV LMP1 inhibitor project, dry powder, set 2 (AID 624374); type: functional
[31] = ARNT/TACC3 interaction disruptors, potency, confirmation, biochemical, AlphaScreen, cherry-picked samples (AID 651703); type: functional, Homo sapiens;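 also: His-tagged ARNT PAS-B domain paired with GST-TACC3 E629A dimer coactivator fragment; potency of inhibitors that break up the complex and lower AlphaScreen signal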
[32] = inhibitors of SNCA 5'UTR-driven reporter translation, confirmation, H4 neuroglioma cells, luminescence (AID 1988); type: functional, cell-based
[33] = AlphaScreen signal interference compounds, dose response, artefact control for ARNT-TACC3 interaction inhibitor project, biochemical, luminescence, cherry-pick (AID 651705); type: functional;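 also: AlphaScreen bead proximity signal that flags compounds interfering with the detection technology; potency reflects signal decrease which marks the compound as an assay artifact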
[34] = Luminescence Cell-Based Dose Response HTS to Identify Inhibitors of 5'UTR Stem-Loop Driven Prion Protein mRNA Translation in H4 Neuroglioblastoma Cells. [Related pubchem assays: 1827 (Project Summary), 1813 (Primary HTS)]; type: functional
[35] = inhibitors of firefly luciferase expression or activity, dose response, H4 neuroglioma cells, luminescence (AID 1990); type: functional, cell-based

T7 sequence (Q38C91 whole entry): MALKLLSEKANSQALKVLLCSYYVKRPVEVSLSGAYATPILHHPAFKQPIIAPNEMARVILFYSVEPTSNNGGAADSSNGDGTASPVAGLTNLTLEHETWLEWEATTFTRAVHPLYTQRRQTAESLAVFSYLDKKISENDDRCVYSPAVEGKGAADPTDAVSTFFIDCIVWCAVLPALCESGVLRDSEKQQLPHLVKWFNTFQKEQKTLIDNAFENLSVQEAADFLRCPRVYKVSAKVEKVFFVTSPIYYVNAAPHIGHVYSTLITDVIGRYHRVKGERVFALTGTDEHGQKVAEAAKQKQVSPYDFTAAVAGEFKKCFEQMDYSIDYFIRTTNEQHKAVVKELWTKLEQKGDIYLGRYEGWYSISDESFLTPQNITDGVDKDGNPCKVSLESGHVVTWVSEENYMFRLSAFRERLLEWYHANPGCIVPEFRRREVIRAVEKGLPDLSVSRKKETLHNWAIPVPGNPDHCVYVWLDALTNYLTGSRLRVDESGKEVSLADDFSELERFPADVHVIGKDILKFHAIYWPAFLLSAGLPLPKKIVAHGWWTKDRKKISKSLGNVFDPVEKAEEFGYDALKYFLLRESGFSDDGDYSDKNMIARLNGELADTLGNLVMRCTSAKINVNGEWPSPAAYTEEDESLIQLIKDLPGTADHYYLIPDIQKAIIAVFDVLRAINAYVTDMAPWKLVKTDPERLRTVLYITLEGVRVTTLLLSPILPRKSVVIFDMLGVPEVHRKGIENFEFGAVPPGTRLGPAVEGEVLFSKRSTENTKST
T1 sequence (Q92731 whole entry): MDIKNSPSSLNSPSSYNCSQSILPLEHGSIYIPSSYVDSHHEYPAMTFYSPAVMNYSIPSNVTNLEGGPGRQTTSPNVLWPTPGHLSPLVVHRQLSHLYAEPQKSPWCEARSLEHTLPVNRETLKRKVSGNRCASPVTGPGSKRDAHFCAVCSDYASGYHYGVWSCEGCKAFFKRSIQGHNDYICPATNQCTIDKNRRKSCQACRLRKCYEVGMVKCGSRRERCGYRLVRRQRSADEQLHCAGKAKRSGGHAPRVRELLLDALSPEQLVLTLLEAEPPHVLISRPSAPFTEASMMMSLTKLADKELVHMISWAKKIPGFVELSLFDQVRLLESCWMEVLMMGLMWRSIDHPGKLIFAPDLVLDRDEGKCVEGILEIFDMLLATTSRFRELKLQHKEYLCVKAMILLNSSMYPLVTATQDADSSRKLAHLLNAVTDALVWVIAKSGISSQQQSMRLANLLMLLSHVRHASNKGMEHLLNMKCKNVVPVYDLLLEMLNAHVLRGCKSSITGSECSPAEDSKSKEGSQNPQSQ
T6 sequence (Q9P0U3 whole entry, the tested form may be a part): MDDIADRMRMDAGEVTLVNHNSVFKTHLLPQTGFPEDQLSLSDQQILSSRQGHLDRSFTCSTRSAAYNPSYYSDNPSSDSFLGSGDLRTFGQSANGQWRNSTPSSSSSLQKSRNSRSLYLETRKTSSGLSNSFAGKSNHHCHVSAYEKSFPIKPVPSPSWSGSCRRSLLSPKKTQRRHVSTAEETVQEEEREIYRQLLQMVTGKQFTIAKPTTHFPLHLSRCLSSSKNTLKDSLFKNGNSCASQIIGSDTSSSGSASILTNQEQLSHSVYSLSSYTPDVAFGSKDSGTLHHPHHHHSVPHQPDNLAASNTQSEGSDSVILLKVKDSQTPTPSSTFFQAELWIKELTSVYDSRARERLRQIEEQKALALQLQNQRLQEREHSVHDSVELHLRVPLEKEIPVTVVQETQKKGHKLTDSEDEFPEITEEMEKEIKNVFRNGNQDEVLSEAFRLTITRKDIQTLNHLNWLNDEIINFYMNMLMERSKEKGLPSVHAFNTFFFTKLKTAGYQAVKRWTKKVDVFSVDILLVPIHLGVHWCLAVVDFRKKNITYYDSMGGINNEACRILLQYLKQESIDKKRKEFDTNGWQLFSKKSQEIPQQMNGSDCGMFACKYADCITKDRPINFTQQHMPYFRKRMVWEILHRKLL
T5 sequence (P07550 whole entry): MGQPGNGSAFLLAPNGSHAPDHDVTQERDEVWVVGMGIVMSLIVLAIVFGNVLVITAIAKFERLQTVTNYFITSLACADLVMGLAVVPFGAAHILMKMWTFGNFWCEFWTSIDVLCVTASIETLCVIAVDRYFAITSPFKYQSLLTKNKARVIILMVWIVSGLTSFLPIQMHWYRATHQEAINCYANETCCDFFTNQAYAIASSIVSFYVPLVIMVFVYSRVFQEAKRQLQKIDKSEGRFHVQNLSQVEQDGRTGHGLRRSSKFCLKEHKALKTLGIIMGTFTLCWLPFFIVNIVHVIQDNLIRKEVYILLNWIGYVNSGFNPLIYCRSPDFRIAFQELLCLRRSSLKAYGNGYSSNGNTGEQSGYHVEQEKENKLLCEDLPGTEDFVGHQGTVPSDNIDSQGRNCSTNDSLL
Chain of SWI/SNF-related matrix-associated actin-dependent regulator of chromatin subfamily A member 2 (P51531 whole entry): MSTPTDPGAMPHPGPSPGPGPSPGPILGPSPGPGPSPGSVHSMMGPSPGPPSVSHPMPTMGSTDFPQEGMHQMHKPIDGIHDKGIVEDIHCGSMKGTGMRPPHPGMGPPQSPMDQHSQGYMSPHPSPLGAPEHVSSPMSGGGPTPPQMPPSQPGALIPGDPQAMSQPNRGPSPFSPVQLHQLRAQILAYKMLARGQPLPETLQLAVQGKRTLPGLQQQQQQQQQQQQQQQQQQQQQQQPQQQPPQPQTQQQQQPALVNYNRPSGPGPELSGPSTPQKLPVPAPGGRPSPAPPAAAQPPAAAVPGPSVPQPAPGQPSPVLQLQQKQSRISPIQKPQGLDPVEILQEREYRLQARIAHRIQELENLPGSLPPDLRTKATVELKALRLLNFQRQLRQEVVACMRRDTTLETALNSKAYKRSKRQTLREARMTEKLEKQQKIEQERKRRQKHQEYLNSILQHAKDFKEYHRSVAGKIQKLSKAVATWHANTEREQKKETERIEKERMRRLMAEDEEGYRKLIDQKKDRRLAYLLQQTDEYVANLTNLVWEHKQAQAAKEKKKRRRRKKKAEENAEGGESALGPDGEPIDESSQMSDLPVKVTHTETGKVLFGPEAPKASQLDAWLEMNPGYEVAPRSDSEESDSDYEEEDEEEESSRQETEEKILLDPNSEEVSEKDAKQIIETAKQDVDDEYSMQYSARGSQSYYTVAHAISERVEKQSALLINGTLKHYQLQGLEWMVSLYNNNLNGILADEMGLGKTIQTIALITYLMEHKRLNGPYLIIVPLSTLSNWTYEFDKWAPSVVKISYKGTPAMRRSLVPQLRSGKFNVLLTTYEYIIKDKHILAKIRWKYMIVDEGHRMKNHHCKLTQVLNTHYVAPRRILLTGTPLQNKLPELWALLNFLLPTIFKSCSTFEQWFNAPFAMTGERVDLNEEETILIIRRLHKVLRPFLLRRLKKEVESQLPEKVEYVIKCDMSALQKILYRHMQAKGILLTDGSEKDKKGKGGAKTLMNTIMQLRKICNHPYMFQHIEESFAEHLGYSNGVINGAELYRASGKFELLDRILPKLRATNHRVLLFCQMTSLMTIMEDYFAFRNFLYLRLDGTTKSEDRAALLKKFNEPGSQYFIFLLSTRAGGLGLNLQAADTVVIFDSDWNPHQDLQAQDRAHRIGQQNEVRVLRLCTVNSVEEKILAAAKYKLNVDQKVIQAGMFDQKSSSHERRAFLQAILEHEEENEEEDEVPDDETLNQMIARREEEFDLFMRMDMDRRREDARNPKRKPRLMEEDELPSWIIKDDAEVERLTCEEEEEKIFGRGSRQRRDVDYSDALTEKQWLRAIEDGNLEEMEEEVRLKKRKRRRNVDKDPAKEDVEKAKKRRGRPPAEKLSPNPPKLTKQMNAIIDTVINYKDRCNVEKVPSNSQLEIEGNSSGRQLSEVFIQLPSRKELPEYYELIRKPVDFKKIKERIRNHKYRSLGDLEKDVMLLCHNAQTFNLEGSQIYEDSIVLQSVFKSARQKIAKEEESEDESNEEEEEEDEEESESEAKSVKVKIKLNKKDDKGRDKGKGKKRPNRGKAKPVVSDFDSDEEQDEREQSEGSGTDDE
Chain of Mu-type opioid receptor (P35372 whole entry): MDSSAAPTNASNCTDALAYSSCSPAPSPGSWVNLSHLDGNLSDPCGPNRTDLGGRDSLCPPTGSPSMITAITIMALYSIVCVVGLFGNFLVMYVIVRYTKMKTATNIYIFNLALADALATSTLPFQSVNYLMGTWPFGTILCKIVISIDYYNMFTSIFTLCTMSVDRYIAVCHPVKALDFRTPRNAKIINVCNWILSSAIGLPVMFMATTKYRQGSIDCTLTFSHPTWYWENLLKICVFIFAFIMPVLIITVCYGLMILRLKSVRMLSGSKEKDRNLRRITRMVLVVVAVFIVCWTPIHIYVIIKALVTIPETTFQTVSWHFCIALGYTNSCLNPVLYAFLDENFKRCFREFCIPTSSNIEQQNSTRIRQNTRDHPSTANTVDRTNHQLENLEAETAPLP
Chain of 5-hydroxytryptamine receptor 2A (P35363 whole entry): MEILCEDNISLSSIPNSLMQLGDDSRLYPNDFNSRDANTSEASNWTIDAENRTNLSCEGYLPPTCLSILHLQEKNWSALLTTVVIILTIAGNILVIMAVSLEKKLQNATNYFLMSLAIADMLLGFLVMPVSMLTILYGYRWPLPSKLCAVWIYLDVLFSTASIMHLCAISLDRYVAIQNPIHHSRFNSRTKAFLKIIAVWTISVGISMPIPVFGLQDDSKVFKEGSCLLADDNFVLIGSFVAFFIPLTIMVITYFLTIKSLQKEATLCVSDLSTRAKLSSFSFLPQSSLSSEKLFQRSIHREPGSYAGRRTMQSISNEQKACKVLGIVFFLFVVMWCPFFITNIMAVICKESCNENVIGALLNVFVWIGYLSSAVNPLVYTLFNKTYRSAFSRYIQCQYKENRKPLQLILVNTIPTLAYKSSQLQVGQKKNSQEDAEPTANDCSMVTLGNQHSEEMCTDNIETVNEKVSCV
Chain of Low molecular weight phosphotyrosine protein phosphatase (P24666 whole entry): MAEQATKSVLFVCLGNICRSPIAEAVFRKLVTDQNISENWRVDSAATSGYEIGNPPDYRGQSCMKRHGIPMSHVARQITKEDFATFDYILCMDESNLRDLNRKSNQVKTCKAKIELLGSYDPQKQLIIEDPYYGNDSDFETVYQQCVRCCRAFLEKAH

## CCN(c1ccccc1)S(=O)(=O)c1cc(C(=O)O)ccc1C
Estrogen receptor beta [1]
  IC50: 6.12 µM (active)
Estrogen receptor
  IC50: 13.1 µM (active)
Estrogen receptor beta [2]
  IC50: 1.83 µM (not active)
[3]
  IC50: 21 µM (inactive)
[4]
  AC50: 9.26 µM (active)

## Cc1cc(OCC(=O)Nc2ccncc2)c(C)cc1Br
Cells [5]
  EC50: > 29.9 µM (inactive)
Galanin receptor type 3
  IC50: 1.4 µM (active)

## Cc1[nH]c2ccccc2c1NC(=O)CN1CCN(C(=O)c2ccco2)CC1
Coagulation factor XII
  IC50: > 50 µM (inactive)
Mu-type opioid receptor
  EC50: 92.4 µM (inactive)
[6]
  EC50: 4.1 µM (active)

## Cn1c(N2CCN(c3ccccn3)CC2)nc2c1c(=O)n(Cc1ccc(Cl)cc1)c(=O)n2C
HEK293 [7]
  EC50: 6.92 µM (active)
[8]
  EC50: 0.081 µM (active)
[9]
  EC50: 0.0074 µM (active)
HEK293 [10]
  IC50: 7.19 µM (active)
HEK293 [11]
  IC50: 10.9 µM (active)
HEK293 [12]
  IC50: 6 µM (active)

## O=C(Nc1ccccc1Cl)c1ccc([N+](=O)[O-])o1
[13]
  EC50: 1.64 µM (active)
[14]
  EC50: > 91.2 µM (inactive)
Vero [15]
  CC50: 12.2 µM (active)
[16]
  EC50: > 91.2 µM (inactive)
[17]
  EC50: > 160 µM (inactive)
Vero [18]
  IC50: > 25 µM (active)

## O=[N+]([O-])c1ccc(COc2ccc(CN3CCOCC3)cc2)cc1
Cells [19]
  IC50: > 67.5 µM (inactive)
[20]
  IC50: > 67.5 µM (inactive)

## CC/N=c1\scc(-c2cccs2)n1/N=C/c1cc(OC)ccc1O
[21]
  IC50: 15.8 µM (active)
[22]
  IC50: 18.6 µM (active)

## Cc1ccccc1-c1c[nH]c(C(O)c2cc(Cl)cc(Cl)c2)n1 (stereo not given)
[23]
  IC50: 5.56 µM (active)
[24]
  IC50: 83.3 µM (inactive)
[25]
  IC50: 8.47 µM (active)

## COC(=O)C1=C(C)N(Cc2ccc(Br)cc2)C(=S)NC1c1cccc(Cl)c1 (stereo not given)
Cryptococcus neoformans
  AC50: 26.4 µM (active)

## C[C@H](CO)N1C[C@H](C)[C@H](CN(C)S(=O)(=O)c2ccccc2)Oc2cc(Br)ccc2S1(=O)=O
[26]
  AC50: 53.4 µM (active)
[27]
  AC50: 4.68 µM (active)
[28]
  AC50: 38.6 µM (active)

## COc1ccccc1-c1noc2c1C(=O)N(Cc1cn(Cc3ccccc3)nn1)CC2
Vero [29]
  AC50: 32.2 µM (active)

## O=C(Cc1ccccn1)NCC[C@@H]1CC[C@@H](NC(=O)Nc2ccc(Cl)cc2)[C@@H](CO)O1
[30]
  AbsAC35: 83.87 µM

## O=c1oc2ccccc2c(O)c1/C=N/Cc1ccccn1
[31]
  AC50: 109 µM (active)

## C(=N\Nc1ccc2nncn2n1)/c1ccccn1
[32]
  EC50: > 120 µM (not active)
[33]
  AC50: 110 µM (active)
[34]
  EC50: 11.8 µM (active)
[35]
  EC50: > 120 µM (not active)
